In patent publication US11234979B2, “Heteroaryl compounds as muscarinic M1 receptor positive allosteric modulators” (SUVEN LIFE SCIENCES LIMITED, priority 2017, dated 2022):

Biological target: T1, recombinant human Muscarinic M1 receptor (Homo sapiens, UniProt P11229)
T1 construct: expressed in transfected cells
T1 sequence (P11229 1-460): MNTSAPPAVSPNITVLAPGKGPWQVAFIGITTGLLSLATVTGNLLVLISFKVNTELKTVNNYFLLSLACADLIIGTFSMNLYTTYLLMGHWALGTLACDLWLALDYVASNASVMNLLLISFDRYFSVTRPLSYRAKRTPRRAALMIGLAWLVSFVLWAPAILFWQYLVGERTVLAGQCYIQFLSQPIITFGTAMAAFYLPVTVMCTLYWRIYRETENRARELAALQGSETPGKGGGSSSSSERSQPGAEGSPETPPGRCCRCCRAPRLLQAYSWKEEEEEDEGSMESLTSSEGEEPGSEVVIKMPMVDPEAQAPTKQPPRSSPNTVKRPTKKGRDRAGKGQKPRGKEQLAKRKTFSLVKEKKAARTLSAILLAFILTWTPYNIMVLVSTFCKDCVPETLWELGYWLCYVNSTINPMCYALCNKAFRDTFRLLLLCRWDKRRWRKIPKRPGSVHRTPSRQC
Assay: Allosteric potency EC50 for Muscarinic M1 receptor, CHO pCRE-Luc reporter assay with EC20 of acetylcholine
Assay type: cell-based
Conditions: CHO cells, in presence of EC20 of acetylcholine, 4 hours
Description: Determination of Allosteric Potency EC50 Values for Muscarinic M1 Receptor:
A stable CHO cell line expressing recombinant human Muscarinic M1 receptor and pCRE-Luc reporter system was used for cell-based assay. The assay offers a non-radioactive based approach to determine binding of a compound to GPCRs. In this specific assay, the level of intracellular cyclic AMP which is modulated by activation or inhibition of the receptor is measured. The recombinant cells harbor luciferase reporter gene under the control of cAMP response element.
The above cells were grown in 96 well clear bottom white plates in Hams F12 medium containing 10% fetal bovine serum (FBS). Prior to the addition of compounds or standard agonist, cells were serum starved overnight. Increasing concentrations of test compounds were added along with EC20 of acetylcholine in OptiMEM medium to the cells. The incubation was continued at 37° C. in CO2 incubator for 4 hours. Medium was removed and cells were washed with phosphate buffered saline. The cells were lysed and luciferase activity was measured in a Luminometer. Luminescence counts in each concentrations of test item were normalized to the acetylcholine induced maximum response and the data was analyzed using Graphpad software. EC50 values of the compounds were defined as the concentration required in stimulating the luciferase activity by 50% in presence of EC20 of acetylcholine.

Structure (SMILES) | EC50 [nM]
COc1cccc(Cc2cc(C(=O)N[C@H]3CCCC[C@@H]3O)n3ncccc23)c1F [Example 18, N-(cis-1S,2S-2-Hydroxycyclohexyl)-5-(2-fluoro-3-methoxybenzyl)-pyrrolo[1,2-b]pyridazine-7-carboxamide] | 3720
O=C(N[C@H]1CCCC[C@@H]1O)c1cc(Cc2cccc(F)c2)c2cccnn12 [Example 19, N-(cis-1S,2S-2-Hydroxycyclohexyl)-5-(3-fluorobenzyl)-pyrrolo[1,2-b]pyridazine-7-carboxamide] | 2100
O=C(NC1CCOCC1)c1cc(Cc2ccc(-n3cccn3)cc2)c2cccnn12 [Example 22, N-(Tetrahydropyran-4-yl)-5-(4-pyrazol-1-ylbenzyl)-pyrrolo[1,2-b]pyridazine-7-carboxamide] | 1760
O=C(N[C@H]1CCCC[C@@H]1O)c1cc(Cc2ccc(-c3cscn3)cc2)c2cccnn12 [Example 23, N-(cis-1S,2S-2-Hydroxycyclohexyl)-5-(4-thiazol-4-ylbenzyl)-pyrrolo[1,2-b]pyridazine-7-carboxamide] | 119
O=C(N[C@H]1CCCC[C@@H]1O)c1cc(Cc2ccc(F)cc2Br)c2cccnn12 [Example 24, N-(cis-1S,2S-2-Hydroxycyclohexyl)-5-(2-bromo-4-fluorobenzyl)-pyrrolo[1,2-b]pyridazine-7-carboxamide] | 1180
O=C(N[C@H]1CCCC[C@@H]1O)c1cc(Cc2ccc(Br)c(F)c2F)c2cccnn12 [Example 25, N-(cis-1S,2S-2-Hydroxycyclohexyl)-5-(2,3-difluoro-4-bromobenzyl)-pyrrolo[1,2-b]pyridazine-7-carboxamide] | 2290
O=C(N[C@H]1CCCC[C@@H]1O)c1cc(Cc2ccc(F)c(Br)c2)c2cccnn12 [Example 26, N-(cis-1S,2S-2-Hydroxycyclohexyl)-5-(3-bromo-4-fluorobenzyl)-pyrrolo[1,2-b]pyridazine-7-carboxamide] | 643
O=C(N[C@H]1CCCC[C@@H]1O)c1cc(Cc2cccc(Br)c2)c2cccnn12 [Example 27, N-(cis-1S,2S-2-Hydroxycyclohexyl)-5-(3-bromobenzyl)-pyrrolo[1,2-b]pyridazine-7-carboxamide] | 1700
O=C(N[C@H]1CCCC[C@@H]1O)c1cc(Cc2cccnc2Cl)c2cccnn12 [Example 28, N-(cis-1S,2S-2-Hydroxycyclohexyl)-5-(2-chloropyridin-3-ylmethyl)-pyrrolo[1,2-b]pyridazine-7-carboxamide] | 10000
O=C(N[C@H]1CCCC[C@@H]1O)c1cc(Cc2ccnc(Br)c2)c2cccnn12 [Example 29, N-(cis-1S,2S-2-Hydroxycyclohexyl)-5-(2-bromopyridin-4-ylmethyl)-pyrrolo[1,2-b]pyridazine-7-carboxamide] | 1010
O=C(NC1CCOCC1O)c1cc(Cc2cccc(F)c2)c2cccnn12 (centres unmarked) [Example 30, N-(3-Hydroxytetrahydropyran-4-yl)-5-(3-fluorobenzyl)-pyrrolo[1,2-b]pyridazine-7-carboxamide] | 1650
O=C(NC1CCOCC1O)c1cc(Cc2ccc(Br)cc2)c2cccnn12 (centres unmarked) [Example 31, N-(3-Hydroxytetrahydropyran-4-yl)-5-(4-bromobenzyl)-pyrrolo[1,2-b]pyridazine-7-carboxamide] | 1030
Cn1cc(-c2ccc(Cc3cc(C(=O)N[C@H]4CCCC[C@@H]4O)n4ncccc34)cn2)cn1 [Example 35, N-(cis-1S,2S-2-Hydroxycyclohexyl)-5-[6-(1-methyl-1H-pyrazol-4-yl)-pyridin-3-ylmethyl]-pyrrolo[1,2-b]pyridazine-7-carboxamide] | 599
Cn1cc(-c2ccc(Cc3cc(C(=O)N[C@H]4CCCC[C@@H]4O)n4ncccc34)c(F)c2F)cn1 [Example 36, N-(cis-1S,2S-2-Hydroxycyclohexyl)-5-[2,3-difluoro-4-(1-methyl-1H-pyrazol-4-yl)-benzyl]-pyrrolo[1,2-b]pyridazine-7-carboxamide] | 94
Cn1cc(-c2cc(Cc3cc(C(=O)N[C@H]4CCCC[C@@H]4O)n4ncccc34)ccc2F)cn1 [Example 37, N-(cis-1S,2S-2-Hydroxycyclohexyl)-5-[4-fluoro-3-(1-methyl-1H-pyrazol-4-yl)-benzyl]-pyrrolo[1,2-b]pyridazine-7-carboxamide] | 1000
Cn1cc(-c2cccc(Cc3cc(C(=O)N[C@H]4CCCC[C@@H]4O)n4ncccc34)c2)cn1 [Example 38, N-(cis-1S,2S-2-Hydroxycyclohexyl)-5-[3-(1-methyl-1H-pyrazol-4-yl)-benzyl]-pyrrolo[1,2-b]pyridazine-7-carboxamide] | 1530
Cn1cc(-c2ccc(Cc3cc(C(=O)NC4CCOCC4O)n4ncccc34)cc2)cn1 (centres unmarked) [Example 39, N-(3-Hydroxytetrahydropyran-4-yl)-5-[4-(1-methyl-1H-pyrazol-4-yl)-benzyl]-pyrrolo[1,2-b]pyridazine-7-carboxamide] | 291
Cn1cc(-c2cc(Cc3cc(C(=O)N[C@H]4CCCC[C@@H]4O)n4ncccc34)ccn2)cn1 [Example 40, N-(cis-1S,2S-2-Hydroxycyclohexyl)-5-[2-(1-methyl-1H-pyrazol-4-yl)-pyridin-4-ylmethyl]-pyrrolo[1,2-b]pyridazine-7-carboxamide] | 1650
O=C(N[C@H]1CCCC[C@@H]1O)c1cc(Cc2ccc(Br)cc2)n2cccc(F)c12 [Example 41, N-(cis-1S,2S-2-Hydroxycyclohexyl)-3-(4-bromobenzyl)-8-fluoroindolizine-1-carboxamide] | 236
O=C(N[C@H]1CCCC[C@@H]1O)c1cc(Cc2ccccc2)n2cccc(F)c12 [Example 42, N-(cis-1S,2S-2-Hydroxycyclohexyl)-3-benzyl-8-fluoroindolizine-1-carboxamide] | 1130
O=C(N[C@H]1CCCC[C@@H]1O)c1cc(Cc2ccnc(Cl)c2)n2cccc(F)c12 [Example 43, N-(cis-1S,2S-2-Hydroxycyclohexyl)-3-(2-chloropyridine-4-ylmethyl)-8-fluoroindolizine-1-carboxamide] | 2060
COc1ccc(Cc2cc(C(=O)N[C@H]3CCCC[C@@H]3O)c3c(F)cccn23)cc1 [Example 44, N-(cis-1S,2S-2-Hydroxycyclohexyl)-3-(4-methoxybenzyl)-8-fluoroindolizine-1-carboxamide] | 1590
O=C(N[C@H]1CCCC[C@@H]1O)c1cc(Cc2ccc(-c3cscn3)cc2)n2cccc(F)c12 [Example 45, N-(cis-1S,2S-2-Hydroxycyclohexyl)-3-(4-thiazol-4-yl-benzyl)-8-fluoroindolizine-1-carboxamide] | 3190
O=C(NC1CCOCC1O)c1cc(Cc2ccnc(Cl)c2)n2cccc(F)c12 (centres unmarked) [Example 46, N-(3-Hydroxytetrahydropyran-4-yl)-3-(2-chloropyridine-4-ylmethyl)-8-fluoroindolizine-1-carboxamide] | 463
COc1ccc(Cc2cc(C(=O)NC3CCOCC3O)c3c(F)cccn23)cc1 (centres unmarked) [Example 47, N-(3-Hydroxytetrahydropyran-4-yl)-3-(4-methoxybenzyl)-8-fluoroindolizine-1-carboxamide] | 1110
Cn1cc(-c2ccc(Cc3cc(C(=O)N[C@H]4CCCC[C@@H]4O)c4c(F)cccn34)cc2)cn1 [Example 48, N-(cis-1S,2S-2-Hydroxycyclohexyl)-5-[4-(1-methyl-1H-pyrazol-4-yl)-benzyl]-8-fluoroindolizine-1-carboxamide] | 166
